# Values quoted from earlier work in patent publication US20050142187A1, “Enhanced absorption of modified release dosage forms” (priority 2003, published 2005).
smiles,measurement,setting,value
"CC1(C)S[C@@H]2[C@H](NC(=O)[C@H](N)c3ccc(O)cc3)C(=O)N2[C@H]1C(=O)O [Amoxicillin, amoxicillin]",Food effect,current scientific literature,either a negligible or a negative food effect
same,Window of absorption,"known in the art, ""or less""",3 to 4 h
